{"source": "the NIST ThermoML archive (doi:10.1016/j.jct.2007.01.008)", "conditions": "for surface tension liquid-gas: Ring tensiometer; for viscosity / mass density: 101.33 kPa, Liquid; for viscosity: Capillary tube (Ostwald / Ubbelohde) method; for mass density: Vibrating tube method", "note": "Where “and” joins values, the source holds several entries; their conditions need not be identical. Equal values may be shown once. ± gives the expanded uncertainty stated by the source.", "data": [{"smiles": "CCC(=O)CC", "note": "[pentan-3-one]", "values": [{"measurement": "surface tension liquid-gas", "setting": "283.15 K", "value": "26.5 ± 0.4", "unit": "mN/m"}, {"measurement": "viscosity", "setting": "283.15 K", "value": "0.515 ± 0.004", "unit": "mPa·s"}, {"measurement": "mass density", "setting": "283.15 K", "value": "824.27 ± 0.11", "unit": "kg/m3"}, {"measurement": "surface tension liquid-gas", "setting": "285.15 K", "value": "26.3 ± 0.4", "unit": "mN/m"}, {"measurement": "viscosity", "setting": "285.15 K", "value": "0.507 ± 0.004", "unit": "mPa·s"}, {"measurement": "mass density", "setting": "285.15 K", "value": "822.28 ± 0.11", "unit": "kg/m3"}, {"measurement": "surface tension liquid-gas", "setting": "287.15 K", "value": "26.1 ± 0.4", "unit": "mN/m"}, {"measurement": "viscosity", "setting": "287.15 K", "value": "0.499 ± 0.004", "unit": "mPa·s"}, {"measurement": "mass density", "setting": "287.15 K", "value": "820.3 ± 0.11", "unit": "kg/m3"}, {"measurement": "surface tension liquid-gas", "setting": "289.15 K", "value": "26 ± 0.4", "unit": "mN/m"}, {"measurement": "viscosity", "setting": "289.15 K", "value": "0.492 ± 0.004", "unit": "mPa·s"}, {"measurement": "mass density", "setting": "289.15 K", "value": "818.31 ± 0.11", "unit": "kg/m3"}, {"measurement": "surface tension liquid-gas", "setting": "291.15 K", "value": "25.8 ± 0.4", "unit": "mN/m"}, {"measurement": "viscosity", "setting": "291.15 K", "value": "0.484 ± 0.003", "unit": "mPa·s"}, {"measurement": "mass density", "setting": "291.15 K", "value": "816.33 ± 0.11", "unit": "kg/m3"}, {"measurement": "viscosity", "setting": "292.15 K", "value": "0.48 ± 0.003", "unit": "mPa·s"}, {"measurement": "surface tension liquid-gas", "setting": "293.15 K", "value": "25.6 ± 0.4", "unit": "mN/m"}, {"measurement": "viscosity", "setting": "293.15 K", "value": "0.476 ± 0.003", "unit": "mPa·s"}, {"measurement": "mass density", "setting": "293.15 K", "value": "814.34 ± 0.11", "unit": "kg/m3"}, {"measurement": "surface tension liquid-gas", "setting": "295.15 K", "value": "25.4 ± 0.4", "unit": "mN/m"}, {"measurement": "viscosity", "setting": "295.15 K", "value": "0.468 ± 0.003", "unit": "mPa·s"}, {"measurement": "mass density", "setting": "295.15 K", "value": "812.36 ± 0.11", "unit": "kg/m3"}, {"measurement": "surface tension liquid-gas", "setting": "297.15 K", "value": "25.2 ± 0.4", "unit": "mN/m"}, {"measurement": "viscosity", "setting": "297.15 K", "value": "0.46 ± 0.003", "unit": "mPa·s"}, {"measurement": "mass density", "setting": "297.15 K", "value": "810.37 ± 0.11", "unit": "kg/m3"}, {"measurement": "viscosity", "setting": "298.15 K", "value": "0.458 ± 0.003", "unit": "mPa·s"}, {"measurement": "mass density", "setting": "298.15 K", "value": "809.25 ± 0.11 kg/m3 and 810.86 ± 0.11 kg/m3"}, {"measurement": "surface tension liquid-gas", "setting": "299.15 K", "value": "25 ± 0.4", "unit": "mN/m"}, {"measurement": "viscosity", "setting": "299.15 K", "value": "0.453 ± 0.003", "unit": "mPa·s"}, {"measurement": "mass density", "setting": "299.15 K", "value": "808.39 ± 0.11", "unit": "kg/m3"}, {"measurement": "surface tension liquid-gas", "setting": "301.15 K", "value": "24.8 ± 0.4", "unit": "mN/m"}, {"measurement": "viscosity", "setting": "301.15 K", "value": "0.445 ± 0.003", "unit": "mPa·s"}, {"measurement": "mass density", "setting": "301.15 K", "value": "806.4 ± 0.11", "unit": "kg/m3"}, {"measurement": "surface tension liquid-gas", "setting": "303.15 K", "value": "24.6 ± 0.4", "unit": "mN/m"}, {"measurement": "viscosity", "setting": "303.15 K", "value": "0.437 ± 0.003", "unit": "mPa·s"}, {"measurement": "mass density", "setting": "303.15 K", "value": "804.42 ± 0.11", "unit": "kg/m3"}, {"measurement": "surface tension liquid-gas", "setting": "305.15 K", "value": "24.4 ± 0.4", "unit": "mN/m"}, {"measurement": "viscosity", "setting": "305.15 K", "value": "0.429 ± 0.003", "unit": "mPa·s"}, {"measurement": "mass density", "setting": "305.15 K", "value": "802.43 ± 0.12", "unit": "kg/m3"}, {"measurement": "surface tension liquid-gas", "setting": "307.15 K", "value": "24.2 ± 0.4", "unit": "mN/m"}, {"measurement": "viscosity", "setting": "307.15 K", "value": "0.421 ± 0.003", "unit": "mPa·s"}, {"measurement": "mass density", "setting": "307.15 K", "value": "800.45 ± 0.12", "unit": "kg/m3"}, {"measurement": "surface tension liquid-gas", "setting": "309.15 K", "value": "24 ± 0.4", "unit": "mN/m"}, {"measurement": "viscosity", "setting": "309.15 K", "value": "0.414 ± 0.003", "unit": "mPa·s"}, {"measurement": "mass density", "setting": "309.15 K", "value": "798.46 ± 0.12", "unit": "kg/m3"}, {"measurement": "surface tension liquid-gas", "setting": "311.15 K", "value": "23.8 ± 0.4", "unit": "mN/m"}, {"measurement": "viscosity", "setting": "311.15 K", "value": "0.406 ± 0.003", "unit": "mPa·s"}, {"measurement": "mass density", "setting": "311.15 K", "value": "796.48 ± 0.12", "unit": "kg/m3"}, {"measurement": "surface tension liquid-gas", "setting": "313.15 K", "value": "23.6 ± 0.4", "unit": "mN/m"}, {"measurement": "viscosity", "setting": "313.15 K", "value": "0.398 ± 0.003", "unit": "mPa·s"}, {"measurement": "mass density", "setting": "313.15 K", "value": "794.49 ± 0.12", "unit": "kg/m3"}, {"measurement": "surface tension liquid-gas", "setting": "315.15 K", "value": "23.4 ± 0.4", "unit": "mN/m"}, {"measurement": "viscosity", "setting": "315.15 K", "value": "0.39 ± 0.003", "unit": "mPa·s"}, {"measurement": "mass density", "setting": "315.15 K", "value": "792.51 ± 0.12", "unit": "kg/m3"}, {"measurement": "surface tension liquid-gas", "setting": "317.15 K", "value": "23.3 ± 0.4", "unit": "mN/m"}, {"measurement": "viscosity", "setting": "317.15 K", "value": "0.382 ± 0.003", "unit": "mPa·s"}, {"measurement": "mass density", "setting": "317.15 K", "value": "790.52 ± 0.12", "unit": "kg/m3"}, {"measurement": "surface tension liquid-gas", "setting": "319.15 K", "value": "23.1 ± 0.4", "unit": "mN/m"}, {"measurement": "viscosity", "setting": "319.15 K", "value": "0.375 ± 0.003", "unit": "mPa·s"}, {"measurement": "mass density", "setting": "319.15 K", "value": "788.54 ± 0.12", "unit": "kg/m3"}, {"measurement": "surface tension liquid-gas", "setting": "321.15 K", "value": "22.9 ± 0.3", "unit": "mN/m"}, {"measurement": "viscosity", "setting": "321.15 K", "value": "0.367 ± 0.003", "unit": "mPa·s"}, {"measurement": "mass density", "setting": "321.15 K", "value": "786.55 ± 0.12", "unit": "kg/m3"}, {"measurement": "surface tension liquid-gas", "setting": "323.15 K", "value": "22.7 ± 0.3", "unit": "mN/m"}, {"measurement": "viscosity", "setting": "323.15 K", "value": "0.359 ± 0.003", "unit": "mPa·s"}, {"measurement": "mass density", "setting": "323.15 K", "value": "784.57 ± 0.12", "unit": "kg/m3"}, {"measurement": "surface tension liquid-gas", "setting": "325.15 K", "value": "22.5 ± 0.3", "unit": "mN/m"}, {"measurement": "viscosity", "setting": "325.15 K", "value": "0.351 ± 0.003", "unit": "mPa·s"}, {"measurement": "mass density", "setting": "325.15 K", "value": "782.59 ± 0.12", "unit": "kg/m3"}, {"measurement": "surface tension liquid-gas", "setting": "327.15 K", "value": "22.3 ± 0.3", "unit": "mN/m"}, {"measurement": "viscosity", "setting": "327.15 K", "value": "0.343 ± 0.003", "unit": "mPa·s"}, {"measurement": "mass density", "setting": "327.15 K", "value": "780.6 ± 0.12", "unit": "kg/m3"}, {"measurement": "surface tension liquid-gas", "setting": "329.15 K", "value": "22.1 ± 0.3", "unit": "mN/m"}, {"measurement": "viscosity", "setting": "329.15 K", "value": "0.336 ± 0.003", "unit": "mPa·s"}, {"measurement": "mass density", "setting": "329.15 K", "value": "778.62 ± 0.12", "unit": "kg/m3"}]}]}
